These results are taken from ChEMBL document CHEMBL3232777, “QSAR models for HEPT derivates as NNRTI inhibitors based on Monte Carlo method” (Eur J Med Chem, 2014).

A word on the IC50: it is the concentration that gives 50% inhibition.

This assay relates to Human immunodeficiency virus 1. The experiment in a line: Antiviral activity against HIV1 3B infected in human MT4 cells assessed as protection from cytopathic effect. Type of assay: functional, organism-based. The conditions noted are these: Human immunodeficiency virus 1, 3B. In general terms: Cytopathic effects are the visible damage that an infection or toxin causes in cultured cells.

Take `Cc1c(Sc2ccccc2)n(COCCO)c(=O)[nH]c1=O` [HEPT]: the IC50 was found to be 7.08 µM.
